In PubChem BioAssay AID1918933 (Molecular Pharmacology Branch, DTP, NCI, 2023):
Several values for one entry are separate records, joined by “and”; a condition that tells them apart may be missing. Identical values can stand only once.

System: 186277-243-T-J2-PDC complex spheroid viability
Assay: Anticancer human tumor 186277-243-T-J2-PDC patient-derived colon adenocarcinoma cell line growth inhibition
Conditions: for IC50: curve of first compound; for viability, T/C: stronger effect = lower value
From the text: Multicellular complex tumor spheroid response to LSD1 Inhibitor Iadademstat in combination with a variety of drugs and investigational agents in selected tumor cell lines
The current study was undertaken to assess response to LSD1 inhibitors in combination with standard-of-care drugs and investigational agents in solid tumor complex spheroid models as well as in the K-562 leukemia. Complex spheroids include a stromal component modeled by human endothelial cells (HUVEC) and fibroblasts modeled by human mesenchymal stem cells (MSCs). The concentration ranges selected for each drug and investigational agent were based upon clinically achievable concentrations if the clinical Cmax of the agent was known.
Compounds. The drugs and investigational agents used in this study are listed on Table 1. All of the agents used, including staurosporine (NSC755774) and gemcitabine (NSC613327), were obtained from the Developmental Therapeutics Program, NCI. FDA-approved anticancer drugs are available from the NCI at http://dtp.nci.nih.gov/branches/dscb/oncology_drugset_explanation.html. Drugs and investigational agents were >95% pure by proton nuclear magnetic resonance (NMR) and liquid chromatography/mass spectrometry (LC/MS). Stock solutions were prepared at 400x in DMSO, stored at -70 degrees C, and diluted in fresh medium prior to their use. The final concentration of DMSO in cell culture wells never exceeded 0.25% (v/v). The FDA-approved anticancer drug set is available from the Developmental Therapeutics Program at https://dtp.cancer.gov/organization/dscb/obtaining/available_plates.htm. All drugs and investigational agents were tested over a range starting from a high concentration at or near the clinical Cmax and decreasing in half-log increments. If the clinical Cmax for an agent had not been determined, the highest concentration tested was 10 microM.
Cell Lines. The patient-derived cancer cell (PDC) lines: 292921-168-R-J2-PDC, K24384-001-R-PDC, and 521955-158-R2-J5-PDC pancreatic carcinomas, 556581-035-R-J1 ovarian carcinoma, 324938-238-R-J1-PDC, 855422-203-R-J1-PDC and 883617-216-R-J1-PDC urothelial bladder carcinomas, 743489-274-T-PDC renal cell carcinoma, 138582-R-J1 Merkel cell tumor, K60290-347-R-J1 and K57222-313-R-J1-PDC glioblastomas, 653999-131-R-J2-PDC, LG0703-F948-PDC, and 349418-098-R-PDC non-small cell lung carcinomas, 885512-296-R-J2-PDC, 171881-019-R-J1-PDC breast carcinomas and 186277-243-T-J2-PDC and 233499-124-R-J2-PDC colon carcinomas were obtained from the NCI Patient-Derived Models Repository (PDMR, https://pdmr.cancer.gov). The established cell lines NCI/ADR-RES (RRID:CVCL_14520 and OVCAR-5 (RRID:CVCL_1628) ovarian carcinomas, 786-O (RRID:CVCL_1051) and A498 (RRID:CVCL_A498) renal cell carcinoma, NCI-H211 (ATCC, cat. CRL-5824; RRID:CVCL_1529), NCI-H196 (ATCC, cat. CRL-5823, RRID:CVCL_1509), SW 1271 (ATCC, cat. CRL-2177, RRID:CVCL_1716) and NCI-H1876 (ATCC, cat. CRL-5902, RRID:CVCL_1503) small cell lung carcinomas, MDA-MB-231 (RRID:CVCL_0062) and MDA-MB-468 (RRID:CVCL_0419)breast carcinomas (10-12). Pooled donor human umbilical vein endothelial cells (HUVEC, Lonza, cat. CC-2519) and human mesenchymal stem cells (hMSC, Lonza, cat. PT-2501) were purchased from Lonza (Walkersville, MD).
Cell Culture. All cells were maintained in an incubator at 37 degrees C and 5% CO2 with 95% humidity. The PDC lines were cultured according to standard operating procedures established by the NCI PDMR (https://pdmr.cancer.gov). Briefly all PDCs were thawed and cultured in Matrigel-coated flasks prepared with a working solution of 1X Ham's F-12 nutrient mix, without supplementation (Invitrogen, Waltham, MA, cat. 11765054), 100 U/mL penicillin-streptomycin (Invitrogen, cat. 15140122), and 2.5% Matrigel (Corning Inc., Corning, NY, cat. 354248) for the first three passages. […]
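Further: 7 day exposure to compounds.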
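Wherever viability, T/C is given: 100% = DMSO vehicle control viability.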

SMILES: Nc1ncn(C2CC(O)C(CO)S2)c(=O)n1 (centres undefined) + NC1CC1c1ccc(-c2cccc(O)c2)cc1
- IC50 (second compound 0.1 µM): 105 nM
- IC50 (second compound 0.316 µM): 88.8 nM
- IC50 (second compound 1 µM): 91.4 nM
- IC50 (second compound 3.16 µM): 97.4 nM
- IC50 (second compound 10 µM): 79.5 nM
- viability, T/C (second compound 0.1 µM, first compound 0.000949 µM): 113%
- viability, T/C (second compound 0.1 µM, first compound 0.003 µM): 123%
- viability, T/C (second compound 0.1 µM, first compound 0.00949 µM): 125%
- viability, T/C (second compound 0.1 µM, first compound 0.03 µM): 143%
- viability, T/C (second compound 0.1 µM, first compound 0.0949 µM): 53.8%
- viability, T/C (second compound 0.1 µM, first compound 0.3 µM): 10.9%
- viability, T/C (second compound 0.316 µM, first compound 0.000949 µM): 103%
- viability, T/C (second compound 0.316 µM, first compound 0.003 µM): 119%
- viability, T/C (second compound 0.316 µM, first compound 0.00949 µM): 110%
- viability, T/C (second compound 0.316 µM, first compound 0.03 µM): 129%
- viability, T/C (second compound 0.316 µM, first compound 0.0949 µM): 46%
- viability, T/C (second compound 0.316 µM, first compound 0.3 µM): 9.74%
- viability, T/C (second compound 1 µM, first compound 0.000949 µM): 102%
- viability, T/C (second compound 1 µM, first compound 0.003 µM): 106%
- viability, T/C (second compound 1 µM, first compound 0.00949 µM): 130%
- viability, T/C (second compound 1 µM, first compound 0.03 µM): 128%
- viability, T/C (second compound 1 µM, first compound 0.0949 µM): 47.7%
- viability, T/C (second compound 1 µM, first compound 0.3 µM): 10.7%
- viability, T/C (second compound 3.16 µM, first compound 0.000949 µM): 113%
- viability, T/C (second compound 3.16 µM, first compound 0.003 µM): 111%
- viability, T/C (second compound 3.16 µM, first compound 0.00949 µM): 105%
- viability, T/C (second compound 3.16 µM, first compound 0.03 µM): 137%
- viability, T/C (second compound 3.16 µM, first compound 0.0949 µM): 50.9%
- viability, T/C (second compound 3.16 µM, first compound 0.3 µM): 10.3%
- viability, T/C (second compound 10 µM, first compound 0.000949 µM): 93.8%
- viability, T/C (second compound 10 µM, first compound 0.003 µM): 94.1%
- viability, T/C (second compound 10 µM, first compound 0.00949 µM): 104%
- viability, T/C (second compound 10 µM, first compound 0.03 µM): 107%
- viability, T/C (second compound 10 µM, first compound 0.0949 µM): 41%
- viability, T/C (second compound 10 µM, first compound 0.3 µM): 8.69%

SMILES: COc1cc(Nc2ncc3c(n2)-c2ccc(Cl)cc2C(c2c(F)cccc2OC)=NC3)ccc1C(=O)O
- viability, T/C (compound 0.00316 µM): 101% and 116%
- viability, T/C (compound 0.01 µM): 57.4% and 106%
- viability, T/C (compound 0.0316 µM): 30.4% and 99.2%
- viability, T/C (compound 0.1 µM): 8.56% and 98.8%

SMILES: O=C(c1cc(Cc2n[nH]c(=O)c3ccccc23)ccc1F)N1CCN(C(=O)C2CC2)CC1 + NC1CC1c1ccc(-c2cccc(O)c2)cc1
- IC50 (second compound 0.1 µM): > 10000 nM
- IC50 (second compound 0.316 µM): > 10000 nM
- IC50 (second compound 1 µM): > 10000 nM
- IC50 (second compound 3.16 µM): > 10000 nM
- IC50 (second compound 10 µM): > 10000 nM
- viability, T/C (second compound 0.1 µM, first compound 0.0316 µM): 98.8%
- viability, T/C (second compound 0.1 µM, first compound 0.1 µM): 89.7%
- viability, T/C (second compound 0.1 µM, first compound 0.316 µM): 95.4%
- viability, T/C (second compound 0.1 µM, first compound 1 µM): 103%
- viability, T/C (second compound 0.1 µM, first compound 3.16 µM): 122%
- viability, T/C (second compound 0.1 µM, first compound 10 µM): 107%
- viability, T/C (second compound 0.316 µM, first compound 0.0316 µM): 101%
- viability, T/C (second compound 0.316 µM, first compound 0.1 µM): 101%
- viability, T/C (second compound 0.316 µM, first compound 0.316 µM): 110%
- viability, T/C (second compound 0.316 µM, first compound 1 µM): 92.6%
- viability, T/C (second compound 0.316 µM, first compound 3.16 µM): 121%
- viability, T/C (second compound 0.316 µM, first compound 10 µM): 98.5%
- viability, T/C (second compound 1 µM, first compound 0.0316 µM): 106%
- viability, T/C (second compound 1 µM, first compound 0.1 µM): 92.7%
- viability, T/C (second compound 1 µM, first compound 0.316 µM): 97.4%
- viability, T/C (second compound 1 µM, first compound 1 µM): 95.1%
- viability, T/C (second compound 1 µM, first compound 3.16 µM): 120%
- viability, T/C (second compound 1 µM, first compound 10 µM): 106%
- viability, T/C (second compound 3.16 µM, first compound 0.0316 µM): 84.6%
- viability, T/C (second compound 3.16 µM, first compound 0.1 µM): 101%
- viability, T/C (second compound 3.16 µM, first compound 0.316 µM): 95.8%
- viability, T/C (second compound 3.16 µM, first compound 1 µM): 103%
- viability, T/C (second compound 3.16 µM, first compound 3.16 µM): 115%
- viability, T/C (second compound 3.16 µM, first compound 10 µM): 108%
- viability, T/C (second compound 10 µM, first compound 0.0316 µM): 87.9%
- viability, T/C (second compound 10 µM, first compound 0.1 µM): 92%
- viability, T/C (second compound 10 µM, first compound 0.316 µM): 93.8%
- viability, T/C (second compound 10 µM, first compound 1 µM): 85.4%
- viability, T/C (second compound 10 µM, first compound 3.16 µM): 120%
- viability, T/C (second compound 10 µM, first compound 10 µM): 98.5%
